Measured values reported in patent publication US8778871B2 (Takeda Pharmaceutical Company Limited, priority 2004, dated 2014).
Non-standard residues stand in square brackets, D forms with d. Residues, ends and D or L forms follow the SMILES beside them. *: point of attachment. X9 = CC(C)C[C@H](NCCN*)C(=O)N[C@@H](CCCNC(=N)N)C(=O)N[C@@H](Cc1ccccc1)C(N)=O; NαAmidinoTrp = N=C(N)N[C@@H](Cc1c[nH]c2ccccc12)C(=O)*; Arg(Me) = CNC(=N)NCCC[C@H](N)C(=O)O; d3Pal = N[C@H](Cc1cccnc1)C(=O)O; d4Pal = N[C@H](Cc1ccncc1)C(=O)O; Cha = N[C@@H](CC1CCCCC1)C(=O)O; Bz = O=C(c1ccccc1)*; azaGly = NNC(=O)O

Target: T1, hOT7T175 (Homo sapiens, UniProt Q969F8)
T1 construct: expressed in transfected cells
T1 sequence (Q969F8 whole entry L364H): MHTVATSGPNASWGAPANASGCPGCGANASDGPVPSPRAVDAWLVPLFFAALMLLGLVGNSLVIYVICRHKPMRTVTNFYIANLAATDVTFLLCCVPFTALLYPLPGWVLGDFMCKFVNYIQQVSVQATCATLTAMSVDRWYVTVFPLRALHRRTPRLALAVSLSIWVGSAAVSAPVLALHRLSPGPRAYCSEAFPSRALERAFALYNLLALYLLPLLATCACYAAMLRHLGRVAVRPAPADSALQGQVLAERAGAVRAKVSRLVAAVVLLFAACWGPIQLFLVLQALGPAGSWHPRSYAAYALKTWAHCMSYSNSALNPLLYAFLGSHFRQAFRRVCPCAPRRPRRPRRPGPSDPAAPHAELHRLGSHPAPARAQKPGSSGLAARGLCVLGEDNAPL
Assay: Intracellular Ca ion level-increasing activity using FLIPR (180 seconds; specific activity to Metastin (1-54))
Assay type: cell-based
Conditions: hOT7T175/CHO, change in intracellular calcium ion level for 180 seconds, Tables 21-23
Procedure: In accordance with the method described in JPA 2000-312590, the intracellular Ca ion level-increasing activity was measured using FLIPR. […]
The intracellular Ca ion level-increasing activity of the synthetic peptide in hOT7T175/CHO was determined using FLIPR (Molecular Devices, Inc.).
hOT7T175/CHO was subcultured in DMEM supplemented with 10% dialyzed fetal bovine serum (hereinafter abbreviated as dFBS) and provided for the experiment (hereinafter abbreviated as 10% dFBS/DMEM). The hOT7T175/CHO was suspended in 10% dFBS-DMEM in 15×10^4 cells/ml. The suspension was inoculated on a 96-well plate for FLIPR (Black Plate Clear Bottom, Coster, Inc.) at 200 μl each (3.0×10^4 cells/200 μl), followed by incubation at 37° C. overnight in a 5% CO2 incubator. The cells thus incubated were used (hereinafter simply referred to as the cell plate). Then, 21 ml of HANKS/HBSS (9.8 g of HANKS', 0.35 g of sodium hydrogencarbonate, 20 ml of 1M HEPES; after adjusting the pH to 7.4 with 1N sodium hydroxide, the mixture was subjected to sterilization through a filter), 210 μl of […] Probenecid and 210 μl of fetal bovine serum (FBS) were mixed (HANKS/HBSS-Probenecid-FBS).
Furthermore, 2 vials of Fluo3-AM (50 μg/vial) were dissolved in 21 μL of dimethylsulfoxide and 21 μL of 20% Pluronic acid. The resulting solution was added to and mixed with 10 ml of HANKS/HBSS-Probenecid-FBS described above. After the culture medium was removed, the mixture was dispensed onto the cell plate in 100 μl each/well, followed by incubation at 37° C. for an hour in a 5% CO2 incubator (pigment loading). The peptide was dissolved in dimethylsulfoxide in 1×10^−3 M. The peptide solution was diluted with HANKS'/HBSS containing 2.5 mM Probenecid and 0.2% BSA. The dilution was transferred to a 96-well plate for FLIPR (V-Bottom plate, Coster, Inc.) (hereinafter referred to as a sample plate). After completion of the pigment loading onto the cell plate, the cell plate washed 4 times with wash buffer, which was obtained by adding 2.5 mM Probenecid to HANKS'/HBSS, using a plate washer to leave 100 μL of wash buffer after the washing. The cell plate and the sample plate were set in FLIPR and 0.05 ml of a sample from the sample plate was automatically transferred to the cell plate with the FLIPR device to promote the cell response. A change in intracellular calcium ion level for 180 seconds was measured with passage of time.

Row | Compound | intracellular Ca ion level-increasing activity [specific activity to Metastin (1-54)]
1 | CNC(=N)NCCC[C@H](NC(=O)[C@H](CC(C)C)NC(=O)NNC(=O)[C@H](Cc1ccccc1)NC(=O)[C@H](CO)NC(=O)[C@H](CC(N)=O)NC(=O)[C@H](CC1CCCCC1)NC(=O)[C@@H](CC(N)=O)NC(=O)[C@H](N)Cc1cccnc1)C(=O)N[C@@H](Cc1ccccc1)C(N)=O [Compound No. 290, D-Pya(3)-D-Asn-Cha-Asn-Ser-Phe-AzaGly-Leu-Arg(Me)-Phe-NH2] (H-[d3Pal][dN][Cha]NSF[azaGly]L[Arg(Me)]F-NH2) | 1
2 | 3-(3-Indolyl)propionyl-Phe-Gly-Leu-Arg-Phe-NH2 [Compound No. 352] | ⅓
3 | CNC(=N)NCCC[C@H](NC(=O)[C@H](CC(C)C)NC(=O)NNC(=O)[C@H](Cc1ccccc1)NC(=O)[C@H](CO)NC(=O)[C@H](CC(N)=O)NC(=O)[C@H](Cc1c[nH]c2ccccc12)NC(=O)[C@H](CC(N)=O)NC(=O)[C@@H](C)N)C(=O)N[C@@H](Cc1ccccc1)C(N)=O [Compound No. 259, D-Ala-Asn-Trp-Asn-Ser-Phe-AzaGly-Leu-Arg(Me)-Phe-NH2] (H-[dA]NWNSF[azaGly]L[Arg(Me)]F-NH2) | 1
4 | Benzoyl-Pya(2)-AzaGly-Leu-Arg(Me)-Trp-NH2 [Compound No. 441] | 1
5 | CNC(=N)NCCC[C@H](NC(=O)[C@H](CC(C)C)NC(=O)NNC(=O)[C@H](Cc1ccccc1)NC(=O)[C@H](CO)NC(=O)[C@H](CC(N)=O)NC(=O)[C@H](Cc1c[nH]c2ccccc12)NC(=O)[C@H](CC(N)=O)NC(=O)[C@H](N)Cc1cccnc1)C(=O)N[C@@H](Cc1ccccc1)C(N)=O [Compound No. 258, D-Pya(3)-Asn-Trp-Asn-Ser-Phe-AzaGly-Leu-Arg(Me)-Phe-NH2] (H-[d3Pal]NWNSF[azaGly]L[Arg(Me)]F-NH2) | 2
6 | 3-(3-Pyridyl)propionyl-Phe-AzaGly-Leu-Arg(Me)-Phe-NH2 [Compound No. 340] | ⅕
7 | CNC(=N)NCCC[C@H](NC(=O)[C@H](CC(C)C)NC(=O)NNC(=O)[C@H](Cc1ccccc1)NC(=O)[C@H](CO)NC(=O)[C@H](CC(N)=O)NC(=O)[C@H](Cc1ccccc1)NC(=O)[C@H](N)Cc1cccnc1)C(=O)N[C@@H](Cc1ccccc1)C(N)=O [Compound No. 256, D-Pya(3)-Phe-Asn-Ser-Phe-AzaGly-Leu-Arg(Me)-Phe-NH2] (H-[d3Pal]FNSF[azaGly]L[Arg(Me)]F-NH2) | 1
8 | CNC(=N)NCCC[C@H](NC(=O)[C@H](CC(C)C)NC(=O)NNC(=O)[C@H](Cc1ccccc1)NC(=O)[C@H](CO)NC(=O)[C@H](CC(N)=O)NC(=O)[C@H](CC1CCCCC1)NC(=O)[C@@H](CC(N)=O)NC(=O)[C@H](N)Cc1ccncc1)C(=O)N[C@@H](Cc1ccccc1)C(N)=O [Compound No. 306, D-Pya(4)-D-Asn-Cha-Asn-Ser-Phe-AzaGly-Leu-Arg(Me)-Phe-NH2] (H-[d4Pal][dN][Cha]NSF[azaGly]L[Arg(Me)]F-NH2) | 2
9 | 4-Pyridinecarbonyl-Phe-AzaGly-Leu-Arg(Me)-Nal(2)-NH2 [Compound No. 461] | ⅓
10 | CNC(=N)NCCC[C@H](NC(=O)[C@H](CC(C)C)NC(=O)NNC(=O)[C@H](Cc1ccccc1)NC(=O)[C@H](Cc1ccccc1)NC(=O)[C@H](CO)NC(=O)[C@H](CC(N)=O)NC(=O)[C@H](Cc1ccccc1)NC(=O)[C@H](CC(N)=O)NC(=O)[C@H](N)Cc1ccc(O)cc1)C(=O)N[C@@H](Cc1ccccc1)C(N)=O [Compound No. 270, D-Tyr-Asn-Phe-Asn-Ser-Phe-Phe-AzaGly-Leu-Arg(Me)-Phe-NH2] (H-[dY]NFNSFF[azaGly]L[Arg(Me)]F-NH2) | 1
11 | CNC(=N)NCCC[C@H](NC(=O)[C@H](CC(C)C)NC(=O)NNC(=O)[C@H](Cc1ccccc1)NC(=O)[C@H](CO)NC(=O)[C@H](CC(N)=O)NC(=O)[C@H](Cc1c[nH]c2ccccc12)NC(=N)N)C(=O)N[C@@H](Cc1ccccc1)C(N)=O [Compound No. 273, Amidino-Trp-Asn-Ser-Phe-AzaGly-Leu-Arg(Me)-Phe-NH2] (NαAmidinoTrp-NSF[azaGly]L[Arg(Me)]F-NH2) | 5
12 | Pyrazinecarbonyl-Phe-AzaGly-Leu-Arg(Me)-Trp-NH2 [Compound No. 446] | 1
13 | 4-Pyridinecarbonyl-Phe-AzaGly-Leu-Arg(Me)-Phe-NH2 [Compound No. 471] | 1
14 | Tos-Phe-AzaGly-Leu-Arg(Me)-Trp-NH2 [Compound No. 368] | ½
15 | 3-Pyridinecarbonyl-Phe-AzaGly-Leu-Arg(Me)-Trp-NH2 [Compound No. 432] | 2
16 | CNC(=N)NCCC[C@H](NC(=O)[C@H](CC(C)C)NC(=O)NNC(=O)[C@H](Cc1ccccc1)NC(=O)[C@H](CO)NC(=O)[C@H](CC(N)=O)NC(=O)[C@H](Cc1ccccc1)NC(=O)[C@@H](CC(N)=O)NC(=O)[C@H](N)Cc1ccc(O)cc1)C(=O)N[C@@H](Cc1ccccc1)C(N)=O [Compound No. 257, D-Tyr-D-Asn-Phe-Asn-Ser-Phe-AzaGly-Leu-Arg(Me)-Phe-NH2] (H-[dY][dN]FNSF[azaGly]L[Arg(Me)]F-NH2) | 3

Row | Compound | intracellular Ca ion level-increasing activity [specific activity to Metastin (1-54)]
17 | Indole-3-acetyl-Phe-AzaGly-Leu-Arg(Me)-Phe-NH2 [Compound No. 345] | 2
18 | 2-Methylnicotinoyl-Phe-AzaGly-Leu-Arg(Me)-Trp-NH2 [Compound No. 443] | ½
19 | Benzyl-Phe-AzaGly-Leu-Arg(Me)-Trp-NH2 [Compound No. 450] | ⅓
20 | CNC(=N)NCCC[C@H](NC(=O)[C@H](CC(C)C)NC(=O)NNC(=O)[C@H](Cc1ccccc1)NC(=O)[C@H](CO)NC(=O)[C@H](CC(N)=O)NC(=O)[C@@H](N)Cc1c[nH]c2ccccc12)C(=O)N[C@@H](Cc1ccccc1)C(N)=O [Compound No. 271, Trp-Asn-Ser-Phe-AzaGly-Leu-Arg(Me)-Phe-NH2] (H-WNSF[azaGly]L[Arg(Me)]F-NH2) | 1
21 | Z-Phe-AzaGly-Leu-Arg(Me)-Trp-NH2 [Compound No. 367] | ⅕
22 | CC(C)C[C@H](NCCNC(=O)[C@H](Cc1ccccc1)NC(=O)[C@H](CO)NC(=O)[C@H](CC(N)=O)NC(=O)[C@H](Cc1c[nH]c2ccccc12)NC(=O)[C@H](CC(N)=O)NC(=O)[C@@H](N)Cc1ccc(O)cc1)C(=O)N[C@@H](CCCNC(=N)N)C(=O)N[C@@H](Cc1ccccc1)C(N)=O [Compound No. 261, Tyr-Asn-Trp-Asn-Ser-Phe-GlyΨ(CH2NH)Leu-Arg-Phe-NH2] (H-YNWNSF-X9) | 1
23 | 5-Methylnicotinoyl-Phe-AzaGly-Leu-Arg(Me)-Trp-NH2 [Compound No. 444] | ⅓
24 | Cyclohexanecarbonyl-Phe-AzaGly-Leu-Arg(Me)-Trp-NH2 [Compound No. 439] | 2
25 | 2-Pyridinecarbonyl-Phe-AzaGly-Leu-Arg(Me)-Trp-NH2 [Compound No. 435] | 10
26 | Propionyl-Phe-AzaGly-Leu-Arg(Me)-Trp-NH2 [Compound No. 437] | 2
27 | (2S)-2-acetoxy-3-phenylpropionyl-AzaGly-Leu-Arg(Me)-Trp-NH2 [Compound No. 373] | 2
28 | D-Tyr-Pya(4)-Phe-AzaGly-Leu-Arg(Me)-Trp-NH2 [Compound No. 495] | ⅙
29 | Bz-FGLRF-NH2 [Compound No. 351] | ½
30 | Bz-A[azaGly]L[Arg(Me)]W-NH2 [Compound No. 392] | ⅕
31 | D-Tyr-D-Pya(4)-Asn-Ser-Phe-AzaGly-Leu-Har(Me)-Phe-NH2 [Compound No. 489] | ½
